In brackets after ≈: the same amount, converted by molar mass. Read-outs that look alike come from different tables or passages of the source. Values belong to the compound of their own block, whether it stands above or below them.
How the values were obtained:
[1] = tested on: Stapyhlococcus aureus ATCC®6538; experiment: Minimal inhibition concentration (MIC), microdilution method; format: cell-based, Staphylococcus aureus; conditions: Mueller-Hinton II Bouillon, 25 mM MES-buffer, 37° C., no growth after 24 h and 72 h; for MIC: Staphylococcus aureus, ATCC6538, read-out: MIC [A to D] Staphylococcus aureus
Excerpt: (§1) The antimicrobial activity of different substances was examined and compared to perillic acid in vitro using the microdilution method adapted from DIN EN ISO 20776-1:2006. Besides perillic acid and its sodium salt, other organic acids like levulinic acid, p-anisic acid, benzoic acid and sorbic acid as well as alkane-1,2-diols such as hexane-1,2-diol, octane-1,2-diol and decane-1,2-diol were studied. Additionally, the commonly used preservatives 2-phenoxyethanol, 2-phenylethanol and benzyl alcohol were investigated.
(§2) All experiments were done in 96-well plates in a final volume of 200 μL. Test solutions of the investigated compounds were prepared in 25 mM buffered water. The procedure was conducted as following: 4 μL of the particular stock solution were mixed with 196 μL culture medium containing a defined inoculum of the respective target strain. Sterile controls (not inoculated) and growth controls (buffer instead of compound added) were performed. All compound concentrations were tested in triplicate for several times. The following contamination germs were examined: Escherichia coli ATCC 8739, Pseudomonas aeruginosa ATCC 9027, Stapyhlococcus aureus ATCC®6538, Bacillus subtilis subsp. spizizenii ATCC®6633, Candida albicans ATCC®10231 and Aspergillus brasiliensis ATCC®16404. The strains were cultivated either in Mueller-Hinton II Bouillon (Escherichia coli, Pseudomonas aeruginosa, Staphylococcus aureus), in yeast peptone dextrose (Bacillus subtilis, Candida albicans) or in potato dextrose medium (Aspergillus brasiliensis). All culture media were buffered with 25 mM MES-buffer. For compound testing, the plates were incubated at 37° C. for Escherichia coli, Pseudomonas aeruginosa and Staphylococcus aureus, at 28° C. for Bacillus subtilis and Candida albicans, and at 25° C. for Aspergillus brasiliensis. Plates were evaluated after 24 h and 72 h, respectively. The minimal inhibitory concentration (MIC) is defined as the concentration where no microbial growth was observed after 24 h and 72 h incubation at the specified temperature.
(§3) MIC-values are given according to the following letter code.

[2] = tested on: Pseudomonas aeruginosa ATCC 9027; experiment: as above; format: cell-based; conditions: for MIC: Pseudomonas aeruginosa
Excerpt: as §1, §2, §3

[3] = tested on: Bacillus subtilis subsp. spizizenii ATCC®6633; experiment: as above; format: cell-based; conditions: yeast peptone dextrose, 25 mM MES-buffer, 28° C., no growth after 24 h and 72 h; for MIC: Bacillus subtilis, ATCC6633, read-out: MIC [A to D] Bacillus subtilis
Excerpt: as §1, §2, §3

[4] = tested on: Aspergillus brasiliensis ATCC®16404; experiment: as above; format: cell-based; conditions: potato dextrose medium, 25 mM MES-buffer, 25° C., no growth after 24 h and 72 h; for MIC: Aspergillus brasiliensis, ATCC16404, read-out: MIC [A to D] Aspergillus brasiliensis
Excerpt: as §1, §2, §3

[5] = tested on: Candida albicans ATCC®10231; experiment: as above; format: cell-based; conditions: yeast peptone dextrose, 25 mM MES-buffer, 28° C., no growth after 24 h and 72 h; for MIC: Candida albicans, ATCC10231, read-out: MIC [A to D] Candida albicans
Excerpt: as §1, §2, §3

[6] = tested on: Escherichia coli ATCC 8739; experiment: Minimal inhibition concentration (MIC), microdilution method adapted from DIN EN ISO 20776-1:2006; format: cell-based; conditions: for MIC: Escherichia coli
Excerpt: as §1, §2, §3

[7] = tested on: Pseudomonas aeruginosa; experiment: Combination of substances with perillic acid: reduction of the MIC of perillic acid; format: cell-based; conditions: test compound combined with perillic acid; experiments as in Example 1
Protocol: as §2
(§4) Activity of perillic acid was comparably low against Gram-negative bacteria. It was thus tested whether the respective MIC could be reduced by combination of perillic acid with selected substances.
(§5) Experiments were performed as described for Example 1 above. A reduction factor was determined, expressing the reduction of the MIC of perillic acid that was achievable by combination with the combination partner. For example, a reduction factor of 2 means that the MIC of perillic acid was reduced by a factor of 2 by combination of perillic acid with the respective activity enhancing substance.

[8] = tested on: Escherichia coli; experiment: as above; format: cell-based; conditions: test compound combined with perillic acid; experiments as in Example 1
Protocol: as §2, §4, §5

[9] = ATCC9027, Mueller-Hinton II Bouillon, 25 mM MES-buffer, 37° C., no growth after 24 h and 72 h, read-out: MIC [A to D] Pseudomonas aeruginosa
[10] = ATCC8739, Mueller-Hinton II Bouillon, 25 mM MES-buffer, 37° C., no growth after 24 h and 72 h, read-out: MIC [A to D] Escherichia coli
[11] = Mueller-Hinton II Bouillon, 25 mM MES-buffer, 37° C., no growth after 24 h and 72 h

Structure (SMILES): CC(=O)C1C(=O)C=C(C)OC1=O (stereo not drawn) [Dehydroacetic acid]
MIC [A to D] Staphylococcus aureus [1]: D (MIC<0.1% (w/v)) | MIC ([2]; ATCC9027, read-out: MIC [A to D] Pseudomonas aeruginosa): 1000 to 5000 µg/mL (≈ 5.95 to 29.7 mM) | MIC [A to D] Bacillus subtilis [3]: D (MIC<0.1% (w/v)) | MIC [A to D] Aspergillus brasiliensis [4]: D (MIC<0.1% (w/v)) | MIC [A to D] Candida albicans [5]: D (MIC<0.1% (w/v)) | MIC ([6]; ATCC8739, read-out: MIC [A to D] Escherichia coli): 1000 to 5000 µg/mL (≈ 5.95 to 29.7 mM)

Structure (SMILES): CCCCC(O)CO (stereo not drawn) [Hexane-1,2-diol]
MIC [A to D] Staphylococcus aureus [1]: A (MIC>1% (w/v)) | MIC [2, 9]: 5000 to 10000 µg/mL (≈ 42.3 to 84.6 mM) | MIC [A to D] Bacillus subtilis [3]: A (MIC>1% (w/v)) | MIC [4]: 5000 to 10000 µg/mL (≈ 42.3 to 84.6 mM) | MIC [A to D] Candida albicans [5]: A (MIC>1% (w/v)) | MIC [6, 10]: 5000 to 10000 µg/mL (≈ 42.3 to 84.6 mM)

Structure (SMILES): CCCCCCCCCCC(O)CO (stereo not drawn) [Dodecane-1,2-diol]
MIC [A to D] Staphylococcus aureus [1]: D (MIC<0.1% (w/v)) | MIC [A to D] Pseudomonas aeruginosa [2, 11]: D (MIC<0.1% (w/v)) | MIC [A to D] Bacillus subtilis [3]: D (MIC<0.1% (w/v)) | MIC [A to D] Aspergillus brasiliensis [4]: D (MIC<0.1% (w/v)) | MIC [A to D] Candida albicans [5]: D (MIC<0.1% (w/v)) | MIC [6, 10]: 5000 to 10000 µg/mL (≈ 24.7 to 49.4 mM)

Structure (SMILES): OCCc1ccccc1 [2-Phenylethanol, reference compound]
MIC [1]: 5000 to 10000 µg/mL (≈ 40.9 to 81.9 mM) | Reduction factor (reduction of the MIC of perillic acid by combination with the test compound) Pseudomonas aeruginosa [7]: 8 | Reduction factor (reduction of the MIC of perillic acid by combination with the test compound) Escherichia coli [8]: 40 | MIC [2, 9]: 5000 to 10000 µg/mL (≈ 40.9 to 81.9 mM) | MIC [3]: 5000 to 10000 µg/mL (≈ 40.9 to 81.9 mM) | MIC [4]: 5000 to 10000 µg/mL (≈ 40.9 to 81.9 mM) | MIC [5]: 5000 to 10000 µg/mL (≈ 40.9 to 81.9 mM) | MIC [6, 10]: 5000 to 10000 µg/mL (≈ 40.9 to 81.9 mM)

Structure (SMILES): O=C([O-])c1ccccc1.[Na+] [Sodium benzoate]
MIC [A to D] Staphylococcus aureus [1]: B (MIC=0.5-1% (w/v)) | MIC [A to D] Pseudomonas aeruginosa [2, 11]: B (MIC=0.5-1% (w/v)) | MIC [A to D] Bacillus subtilis [3]: D (MIC<0.1% (w/v)) | MIC [A to D] Aspergillus brasiliensis [4]: A (MIC>1% (w/v)) | MIC [A to D] Candida albicans [5]: C (MIC=0.1-0.5% (w/v)) | MIC [A to D] Escherichia coli [6, 11]: B (MIC=0.5-1% (w/v))

Structure (SMILES): OCc1ccccc1 [Benzyl Alcohol, reference compound]
MIC [1]: 5000 to 10000 µg/mL (≈ 46.2 to 92.5 mM) | Reduction factor (reduction of the MIC of perillic acid by combination with the test compound) Pseudomonas aeruginosa [7]: 5 | Reduction factor (reduction of the MIC of perillic acid by combination with the test compound) Escherichia coli [8]: 20 | MIC [2, 9]: 5000 to 10000 µg/mL (≈ 46.2 to 92.5 mM) | MIC [3]: 5000 to 10000 µg/mL (≈ 46.2 to 92.5 mM) | MIC [4]: 5000 to 10000 µg/mL (≈ 46.2 to 92.5 mM) | MIC [5]: 5000 to 10000 µg/mL (≈ 46.2 to 92.5 mM) | MIC [6, 10]: 5000 to 10000 µg/mL (≈ 46.2 to 92.5 mM)

Structure (SMILES): CCCCCCCCC(O)CO (stereo not drawn) [Decane-1,2-diol]
MIC [A to D] Staphylococcus aureus [1]: D (MIC<0.1% (w/v)) | MIC [2, 9]: 1000 to 5000 µg/mL (≈ 5.74 to 28.7 mM) | MIC [A to D] Bacillus subtilis [3]: D (MIC<0.1% (w/v)) | MIC [A to D] Aspergillus brasiliensis [4]: D (MIC<0.1% (w/v)) | MIC [A to D] Candida albicans [5]: D (MIC<0.1% (w/v)) | MIC [6, 10]: 1000 to 5000 µg/mL (≈ 5.74 to 28.7 mM)

Results, then the compound that gave them:

MIC [A to D] Staphylococcus aureus [1]: D (MIC<0.1% (w/v)) | MIC [A to D] Pseudomonas aeruginosa [2, 11]: B (MIC=0.5-1% (w/v)) | MIC [A to D] Bacillus subtilis [3]: D (MIC<0.1% (w/v)) | MIC [A to D] Aspergillus brasiliensis [4]: D (MIC<0.1% (w/v)) | MIC [A to D] Candida albicans [5]: D (MIC<0.1% (w/v)) | MIC [A to D] Escherichia coli [6, 11]: C (MIC=0.1-0.5% (w/v))
Structure (SMILES): C=C(C)C1CC=C(C(=O)[O-])CC1.[Na+] (stereo not drawn) [Sodium perillate]

MIC [A to D] Staphylococcus aureus [1]: D (MIC<0.1% (w/v)) | MIC [A to D] Pseudomonas aeruginosa [2, 11]: B (MIC=0.5-1% (w/v)) | MIC [A to D] Bacillus subtilis [3]: D (MIC<0.1% (w/v)) | MIC [A to D] Aspergillus brasiliensis [4]: D (MIC<0.1% (w/v)) | MIC [A to D] Candida albicans [5]: D (MIC<0.1% (w/v)) | MIC [A to D] Escherichia coli [6, 11]: C (MIC=0.1-0.5% (w/v))
Structure (SMILES): C=C(C)[C@H]1CC=C(C(=O)O)CC1 [R-Perillic acid]

MIC [A to D] Staphylococcus aureus [1]: D (MIC<0.1% (w/v)) | Reduction factor (reduction of the MIC of perillic acid by combination with the test compound) Pseudomonas aeruginosa [7]: 80 | Reduction factor (reduction of the MIC of perillic acid by combination with the test compound) Escherichia coli [8]: 40 | MIC [A to D] Pseudomonas aeruginosa [2, 11]: D (MIC<0.1% (w/v)) | MIC [A to D] Bacillus subtilis [3]: D (MIC<0.1% (w/v)) | MIC [4]: 1000 to 5000 µg/mL (≈ 7.24 to 36.2 mM) | MIC [5]: 1000 to 5000 µg/mL (≈ 7.24 to 36.2 mM) | MIC [A to D] Escherichia coli [6, 11]: D (MIC<0.1% (w/v))
Structure (SMILES): O=C(O)c1ccccc1O [Salicylic acid]

MIC [1]: 1000 to 5000 µg/mL (≈ 6.57 to 32.9 mM) | MIC [2, 9]: 1000 to 5000 µg/mL (≈ 6.57 to 32.9 mM) | MIC [3]: 1000 to 5000 µg/mL (≈ 6.57 to 32.9 mM) | MIC [4]: 1000 to 5000 µg/mL (≈ 6.57 to 32.9 mM) | MIC [5]: 5000 to 10000 µg/mL (≈ 32.9 to 65.7 mM) | MIC [6, 10]: 1000 to 5000 µg/mL (≈ 6.57 to 32.9 mM)
Structure (SMILES): COc1ccc(C(=O)O)cc1 [p-Anisic acid]

MIC [A to D] Staphylococcus aureus [1]: D (MIC<0.1% (w/v)) | MIC [A to D] Pseudomonas aeruginosa [2, 11]: B (MIC=0.5-1% (w/v)) | MIC [A to D] Bacillus subtilis [3]: D (MIC<0.1% (w/v)) | MIC [A to D] Aspergillus brasiliensis [4]: D (MIC<0.1% (w/v)) | MIC [A to D] Candida albicans [5]: D (MIC<0.1% (w/v)) | MIC [A to D] Escherichia coli [6, 11]: C (MIC=0.1-0.5% (w/v))
Structure (SMILES): C=C(C)[C@@H]1CC=C(C(=O)O)CC1 [S-Perillic acid]

Reference: patent US20190060261A1, “ACTIVE COMBINATIONS OF PERILLIC ACID AND ACTIVITY ENHANCING SUBSTANCES” (B.R.A.I.N BIOTECHNOLOGY RESEARCH AND INFORMATION NETWORK AG, priority 2016, published 2019)
